Read-outs that look alike come from different tables or passages of the source.
Assays:
Assay type in all cases: cell-based, human
[1] = system: fresh PBMCs from asymptomatic HIV-1+ patients
[2] = system: fresh PBMCs from patient 744; assay: Proliferation assay of fresh PBMCs from patient 744
[3] = system: fresh PBMCs from patient 024
[4] = system: T cell line 024; assay: Proliferation of CD4+ T cell line 024; settings: T cell line 024 initiated on day 71, autologous APCs

Substance | Mean proliferation (SI) ([1]; Total, 43 patients) | Mean proliferation (SI) ([1]; patients responding to PHA and tetanus toxoid only (n = 12)) | Mean proliferation (SI) ([1]; patients responding to PHA, tetanus toxoid, and HIV antigens (n = 12)) | Proliferation of fresh PBMCs from patient 744, result in words [2] | Proliferative response (SI) [3] | Stimulation of T cell line 024, result in words [4]
Tetanus toxoid: the recall antigen tetanus toxoid | 21 ± 65 | 45 ± 117 | 31 ± 32 | showed a response |  | 
LRPRGKKRYKLKHIV [p17-3/1] |  |  |  |  | 1 | failed to stimulate
LRPGGKKQYRLKHIV [p17-3/2] |  |  |  |  |  | failed to stimulate

Source: article PMC2212407 (The Journal of Experimental Medicine, 1998)
